Test results from patent US20160120840A1, “METHOD AND COMPOSITION FOR TREATING NONEROSIVE REFLUX DISEASE” (SUCAMPO AG, priority 2014, published 2016).

Experiments:
claudin-2 = test: Quantitative real-time RT-PCR, claudin-2 expression in mouse esophagus tissue; type: in vivo; conditions: 6 days, TCA/DCA with 50 μM Compound A in drinking water, n=3; FIG. 3
Protocol: (§1) mRNA was prepared from mouse esophagus tissue after 6 days of treatment with vehicle or active agents (Group1:DMSO control, Group2:TCA/DCA positive control, and Group3:TCA/DCTA with 50 μM Compound A in drinking water, n=3 in each group) and reversely transcribed to cDNA by reverse transcriptase (Superscript III, Invitrogen).
(§2) Expression levels of claudin-2 which is expressed in cation-leaky epithelia, and claudin-4 which is a component of tight junction strands (PNAS 107(17), 8011-8016, 2010; Development Biology 312, 509-522, 2007; and Seminars in Cell & Developmental Biology 36 166-176, 2014), were normalized to GAPDH expression by calculating the A Ct=(Ct of GAPDH−Ct of gene). Setting the expression value of GAPDH to 1.0, the relative expression values were then calculated as 2̂ΔCt.

claudin-4 = test: Quantitative real-time RT-PCR, claudin-4 expression in mouse esophagus tissue; type: in vivo; conditions: 6 days, TCA/DCA with 50 μM Compound A in drinking water, n=3; FIG. 4
Protocol: as §1, §2

[1] = system: esophagus tissues (non-erosive esophageal damage induced by TCA and DCA); test: Effect on non-erosive esophageal damage: tissue conductance of esophagus in Ussing chamber after TCA+DCA treatment; type: in vivo, C57Bl/6J mice; conditions: mice given 4 mM TCA and 2 mM DCA in drinking water for 6 days, Compound A in drinking water for the same period; versus TCA+DCA control; FIG. 1
Protocol: Effect on non-erosive esophageal damage Male or female C57Bl/6J mice were allowed free access to drinking tap water containing 4 mM taurocholic acid (TCA) and 2 mM deoxycholic acid (DCA) for 6 days. On the day after treatment with TCA and DCA, the mice were sacrificed and their esophagus was removed. The esophagus tissues were divided into two parts and distal parts were used for the study. Each tissue was mounted in the Ussing chamber and short-circuit currents were measured. Compound A ((−)-7-{(2R,4aR,5R,7aR)-2-[(3S)-1,1-difluoro-3-methylpentyl]-2-hydroxy-6-oxooctahydrocyclopenta[b]pyran-5-yl}heptanoic acid) was administered to mice in drinking water for the same period of TCA+DCA treatment. Tissue conductance calculated based on the short-circuit current data was used as an index of tissue damage.

[2] = system: mouse esophageal tissues (epithelial layer); test: HE staining of mouse esophageal tissues; type: in vivo; conditions: 6 days of treatment, Compound A with TCA/DCA; FIG. 2
From the text: The mouse esophageal tissues were isolated after 6 days of treatment with control vehicle or drugs (DMSO, TCA/DCA, or Compound A with TCA/DCA). The tissues were separated into two parts, and their lower parts were used for preparation of RT-PCR samples as well as for electrophysiological examination and HE staining. The samples for HE staining were fixed with 10% neutral buffered formalin solution for 12 hrs, after which they were dehydrated and fixed in paraffin. The samples were sliced into 7 μm thick slices in a microtome, and then placed on slide glasses at 43° C. for lhr and then at 55° C. overnight. Following this, tissues were stained with Hematoxylin and Eosin staining solution. The samples were evaluated in a suitable microscope (Olympus EX-43).

In the case of `CC[C@H](C)CC(F)(F)[C@@]1(O)CC[C@H]2[C@@H](CC(=O)[C@@H]2CCCCCCC(=O)O)O1` [Compound A, (−)-7-{(2R,4aR,5R,7aR)-2-[(3S)-1,1-difluoro-3-methylpentyl]-2-hydroxy-6-oxooctahydrocyclopenta[b]pyran-5-yl}heptanoic acid], the “Expression level of claudin-2 (normalized to GAPDH)” value (claudin-2) is reported as “downregulated”, the “Expression level of claudin-4 (normalized to GAPDH)” value (claudin-4) is reported as “upregulated” and the “Tissue conductance (index of tissue damage)” value [1] is reported as “reduced from that found in control animals”. For the same molecule, the “Tissue structure (HE staining), damage of epithelial layer by bile acids” value [2] was “restores or protects against damage by bile acids histologically”.
